The source of these data is ChEMBL document CHEMBL4354805, “Discovery of MK-8719, a Potent O-GlcNAcase Inhibitor as a Potential Treatment for Tauopathies” (J Med Chem, 2019).

Data set [1] can be described thus: Drug excretion in dog cage at 3 mg/kg, po. The format is ADME, organism-based, Canis lupus familiaris. To be noted: read-out: Drug excretion.
The nature of data set [2]: Drug excretion in dog at 3 mg/kg, po. Conditions: in vivo, read-out: Drug excretion. It is filed as ADME, organism-based, Canis lupus familiaris.
A short description of data set [3]: Drug excretion in rat bile at 10 mg/kg, po. It is filed as ADME, organism-based. To be noted: read-out: Drug excretion.
Data set [4] can be described thus: Drug excretion in dog bile at 3 mg/kg, po. The format is ADME, organism-based, Canis lupus familiaris. To be noted: read-out: Drug excretion.
A short description of data set [5]: Drug excretion in rat feces at 10 mg/kg, po. It is filed as ADME, organism-based. To be noted: faeces, read-out: Drug excretion.
Data set [6] is described as follows: Drug excretion in rat at 10 mg/kg, po. Conditions: in vivo, read-out: Drug excretion. It is filed as ADME, organism-based.
Data set [7] can be described thus: Drug excretion in rat cage at 10 mg/kg, po. The format is ADME, organism-based. To be noted: read-out: Drug excretion.
Data set [8] is described as follows: Drug excretion in rat urine at 10 mg/kg, po. It is filed as ADME, organism-based. To be noted: read-out: Drug excretion.
The nature of data set [9]: Drug excretion in dog urine at 3 mg/kg, po. The format is ADME, organism-based, Canis lupus familiaris. Conditions: read-out: Drug excretion.
The nature of data set [10]: Ratio of drug uptake in rat brain to plasma at 3 mg/kg, po measured after 8 hrs. The format is ADME, organism-based. To be noted: read-out: BPR.
Data set [11] can be described thus: Drug uptake in rat brain at 3 mg/kg, po measured after 24 hrs. The format is ADME, organism-based. To be noted: in vivo.
Data set [12] can be described thus: Volume of distribution at steady state in Wistar Han rat at 1 mg/kg, iv or 3 mg/kg, po. The format is ADME, organism-based. To be noted: in vivo, read-out: Vdss.
Data set [13] relates to Rattus norvegicus. Put plainly: Elevation of O-protein in rat brain at 3 mg/kg, po measured after 24 hrs relative to control. The format is functional.
Data set [14] in a line: Drug uptake in rat brain at 3 mg/kg, po measured after 8 hrs. The format is ADME, organism-based. To be noted: in vivo.
Data set [15] is described as follows: Ratio of drug uptake in rat brain to plasma at 3 mg/kg, po measured after 24 hrs. It is filed as ADME, organism-based. To be noted: read-out: BPR.
Data set [16] relates to Rattus norvegicus. Put plainly: Increase in O-protein AUC in rat brain at 3 mg/kg, po measured upto 24 hrs. The format is ADME, organism-based. To be noted: in vivo.
A short description of data set [17]: Oral bioavailability in Wistar Han rat at 3 mg/kg. To be noted: in vivo. The format is ADME, organism-based.
Data set [18] concerns the target T1, Protein O-GlcNAcase (Homo sapiens, UniProt O60502).
T1 sequence (O60502 whole entry): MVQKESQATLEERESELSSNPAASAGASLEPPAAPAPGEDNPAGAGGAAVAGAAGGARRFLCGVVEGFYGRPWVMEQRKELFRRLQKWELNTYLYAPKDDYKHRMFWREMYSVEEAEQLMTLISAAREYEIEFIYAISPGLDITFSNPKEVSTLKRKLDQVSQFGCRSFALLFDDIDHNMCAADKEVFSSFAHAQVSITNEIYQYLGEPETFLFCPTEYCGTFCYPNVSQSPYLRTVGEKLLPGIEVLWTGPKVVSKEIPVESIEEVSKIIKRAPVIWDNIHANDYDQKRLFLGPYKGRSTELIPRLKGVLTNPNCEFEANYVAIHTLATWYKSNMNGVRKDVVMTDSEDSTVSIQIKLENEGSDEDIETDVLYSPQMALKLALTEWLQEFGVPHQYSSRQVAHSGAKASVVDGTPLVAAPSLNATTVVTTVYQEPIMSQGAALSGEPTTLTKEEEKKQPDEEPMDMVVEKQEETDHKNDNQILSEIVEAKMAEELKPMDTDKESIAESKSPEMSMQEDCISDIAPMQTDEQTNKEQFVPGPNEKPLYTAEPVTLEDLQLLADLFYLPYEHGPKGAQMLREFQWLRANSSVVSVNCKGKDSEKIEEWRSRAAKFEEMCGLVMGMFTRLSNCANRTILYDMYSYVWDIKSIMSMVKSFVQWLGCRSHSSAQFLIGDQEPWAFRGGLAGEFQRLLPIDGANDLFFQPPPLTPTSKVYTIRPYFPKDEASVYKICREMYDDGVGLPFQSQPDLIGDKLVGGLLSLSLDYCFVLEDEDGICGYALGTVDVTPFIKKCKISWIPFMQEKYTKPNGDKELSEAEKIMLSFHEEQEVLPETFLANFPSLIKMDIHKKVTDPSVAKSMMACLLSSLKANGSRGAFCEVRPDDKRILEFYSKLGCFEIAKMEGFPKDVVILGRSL
Put plainly: Inhibition of recombinant human OGA.

For data set [19], the system named is Rattus norvegicus. The data set can be described thus: Elevation of O-protein in rat brain at 3 mg/kg, po measured after 8 hrs relative to control. The format is functional.
Data set [20] can be described thus: Fraction unbound in human plasma at 2.5 uM by equilibrium dialysis. It is filed as ADME, cell-free. A general note: In equilibrium dialysis free small molecules cross a membrane that holds back macromolecules.
The target of data set [21] is T2, Protein O-GlcNAcase (Rattus norvegicus, UniProt Q8VIJ5).
T2 sequence (Q8VIJ5 whole entry): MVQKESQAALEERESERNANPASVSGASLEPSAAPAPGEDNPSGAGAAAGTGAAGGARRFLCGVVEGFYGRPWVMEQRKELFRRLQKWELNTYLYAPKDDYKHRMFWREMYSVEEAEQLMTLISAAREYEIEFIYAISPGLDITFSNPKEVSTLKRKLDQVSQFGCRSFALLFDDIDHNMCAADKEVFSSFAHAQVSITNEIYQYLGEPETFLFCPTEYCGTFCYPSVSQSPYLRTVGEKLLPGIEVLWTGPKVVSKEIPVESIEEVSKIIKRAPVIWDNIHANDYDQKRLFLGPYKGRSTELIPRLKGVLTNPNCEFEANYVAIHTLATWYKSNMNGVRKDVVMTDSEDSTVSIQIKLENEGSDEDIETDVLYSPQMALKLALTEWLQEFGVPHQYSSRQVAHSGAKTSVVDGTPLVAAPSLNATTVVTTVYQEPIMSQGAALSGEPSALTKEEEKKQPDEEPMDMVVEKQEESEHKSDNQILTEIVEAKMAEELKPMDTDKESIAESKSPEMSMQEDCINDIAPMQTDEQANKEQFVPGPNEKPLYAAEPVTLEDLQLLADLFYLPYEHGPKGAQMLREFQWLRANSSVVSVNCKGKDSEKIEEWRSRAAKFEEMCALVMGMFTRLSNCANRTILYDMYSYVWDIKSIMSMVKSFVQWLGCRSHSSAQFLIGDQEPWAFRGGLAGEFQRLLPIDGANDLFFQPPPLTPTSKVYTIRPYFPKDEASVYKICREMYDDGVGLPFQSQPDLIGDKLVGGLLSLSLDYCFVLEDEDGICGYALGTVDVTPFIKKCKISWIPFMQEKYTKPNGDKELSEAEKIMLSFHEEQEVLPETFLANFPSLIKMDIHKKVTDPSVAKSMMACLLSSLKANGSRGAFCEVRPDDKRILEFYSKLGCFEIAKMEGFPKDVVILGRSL
Put plainly: Inhibition of OGA in rat PC12 cells assessed as OGlcNAcylated protein level incubated for 24 hrs by ELISA. It is filed as cell-based. Background: ELISA stands for enzyme-linked immunosorbent assay.

The target of data set [22] is T3, Beta-hexosaminidase subunit beta (Homo sapiens, UniProt P07686).
T3 sequence (P07686 whole entry): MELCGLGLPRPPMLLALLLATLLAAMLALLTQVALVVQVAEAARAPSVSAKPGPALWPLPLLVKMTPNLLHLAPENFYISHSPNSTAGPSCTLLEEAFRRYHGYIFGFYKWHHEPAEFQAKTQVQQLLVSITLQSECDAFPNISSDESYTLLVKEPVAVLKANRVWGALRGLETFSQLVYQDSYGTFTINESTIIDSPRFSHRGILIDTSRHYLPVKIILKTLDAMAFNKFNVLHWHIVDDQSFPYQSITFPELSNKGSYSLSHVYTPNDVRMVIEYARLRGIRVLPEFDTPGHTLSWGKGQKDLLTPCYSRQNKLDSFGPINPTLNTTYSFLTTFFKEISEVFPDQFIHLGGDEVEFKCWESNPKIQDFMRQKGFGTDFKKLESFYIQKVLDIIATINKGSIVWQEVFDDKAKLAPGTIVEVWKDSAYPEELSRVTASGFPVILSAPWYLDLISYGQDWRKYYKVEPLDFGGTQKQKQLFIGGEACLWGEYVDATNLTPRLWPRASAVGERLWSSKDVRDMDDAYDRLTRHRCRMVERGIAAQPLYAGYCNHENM
The data set can be described thus: Inhibition of human beta hexosaminidase assessed as inhibitory constant using 4-methylumbelliferyl N-acetyl-beta-D-glucosaminide dihydrate as substrate measured every 60 sec for 45 mins by fluorescence spectrophotometry.

Data set [23] in a line: AUC (0 to 24 hrs) in rat brain at 3 mg/kg, po measured upto 24 hrs. Further details: dose 3 mg/kg, time < 24 hr, route oral. To be noted: in vivo. It is filed as ADME, organism-based.
The nature of data set [24]: Clearance in Wistar Han rat at 1 mg/kg, iv. The format is ADME, organism-based. Conditions: in vivo.
Data set [25] is described as follows: Tmax in rat brain at 3 mg/kg, po measured upto 24 hrs. The format is ADME, organism-based.
Data set [26] can be described thus: Fraction unbound in Wistar Han rat plasma at 2.5 uM by equilibrium dialysis. It is filed as ADME, cell-free.
Data set [27] is described as follows: Half life in Wistar Han rat at 1 mg/kg, iv. Conditions: in vivo. It is filed as ADME, organism-based.
Data set [28] is described as follows: AUCN in Wistar Han rat at 3 mg/kg, po. It is filed as ADME, organism-based. Conditions: in vivo.

Turning to `[3H][C@@]1(O)[C@@H](C(F)F)O[C@@H]2SC(NCC)=N[C@@H]2[C@H]1O`, the dose excreted in [1] came out at 1%; in data set [2] it was 88%; in [3], 17%; in [4] it was 8%; in [5] it was 0.5%; in [6] it was 96%. Besides, the results for the dose excreted in data set [7], in data set [8] and in data set [9] were 3%, 75% and 79%, respectively.

Usually bioavailability stands for the share of a dose that reaches the circulation, judged against a reference dose that is usually intravenous. One may read the Ki as the dissociation constant of the complex between target and ligand, obtained from inhibition or displacement. As a reminder, the fraction unbound is the share of the substance not bound to proteins or other matrix. The low end stands for extensive binding, the high end for weak binding. As a reminder, the EC50 is the midpoint of the concentration-response curve. Usually clearance stands for the rate of elimination divided by the concentration. A higher clearance goes with efficient removal. The term Tmax denotes the time at which the peak concentration occurs. As usually defined, the half-life is how long it takes for the measured level to halve. For the molecule `CNC1=N[C@@H]2[C@H](F)[C@H](O)[C@@H](CO)O[C@@H]2S1`, the Kp at 8 h in data set [10] came out at 1.67. Also, the Drug uptake came out at 0.074 nmol/g in data set [11] and 0.099 nmol/g in data set [14]. Also, in data set [12], the Vd amounted to 2 L/kg. Moreover, the “fold change (FC)” value worked out at 1.45 in [13], 18.44 in data set [16] and 2.13 in [19]. Besides, the Kp at 24 h in [15] is no less than 29.5. This molecule returned a bioavailability in [17] of 70.4%. In addition, the Ki in data set [18] is 0.53 nM; in data set [22] it was greater than 10000 nM. For the same molecule, the fraction unbound at 2.5 µM in data set [20] worked out at 0.84; in data set [26], 0.96. Moreover, in data set [21], the 50% effective concentration (EC50) is 10.6 nM. Also, the AUC in data set [23] is 1.963 nM·h/g. Further, in data set [24], the clearance was determined as 36.8 mL/min/kg. Moreover, in data set [25], the time of peak concentration (Tmax) is 8 h. In addition, the half-life in [27] is 1.27 h. For the same molecule, the AUC/dose in [28] stood at 1.43 µM·kg·h/mg.
